Data taken from patent publication US7144864B2, “Carboxypeptidase R inhibiting peptide” (Hidechika Okada, priority 2002, dated 2006).
“Also recorded” adds a separate entry of the source. Blank lines part the entries; values can stand above or below the compound they belong to. Bridge positions count the residues as written; N and C are the ends. Ends that are not written are not given here. Peptide text beside a SMILES is read from it.

Assays:
[1] = tested on: TM-induced retardation of t-PA-induced fibrinolysis; test: TM-induced retardation of t-PA-induced fibrinolysis in human plasma (clot lysis); type: biochemical
Method: Human plasma was obtained by centrifugation of citrated blood at 3000 g for 15 minutes at room temperature. In a 96-well microtitre plate, […] of a thrombin/calcium mix [50 ml calcium (CaCl Q; 1 M), […] of thrombin (T; 500 U/ml) and 430 ml of Tris buffer (50 mM, pH 7.5)] was added followed by 10 ml of thrombomodulin (TM; final concentration 8 nM). Subsequently, 10 ml of peptide solution in Tris buffer (16 mg/ml […]), Tris buffer or PCI (50 mg/ml) were added. After the addition of 50 ml of a t-PA/plasma mix [[…] of t-PA (130 mg/ml) mixed with 1 ml of pre-warmed citrated plasma (37° C. for 5 minutes) ] the plate was immediately read at 420 nm every 5 minutes for 2 hours on a SpectraMAX 250 Microplate Spectrophotometer (Molecular Device Corporation, Sunnyvale, Calif., USA). Lysis time was defined as the time required for the absorbance to reach half the difference between the plateau reached after clotting and baseline achieved at clot lysis.

[2] = target: T1, purified CPR (carboxypeptidase R) (Homo sapiens, UniProt Q96IY4); test: CPR kinetics: inhibition of CPR-catalysed hydrolysis of hippuryl-L-arginine; type: biochemical
T1 construct: from tissue
T1 sequence (Q96IY4 115-423): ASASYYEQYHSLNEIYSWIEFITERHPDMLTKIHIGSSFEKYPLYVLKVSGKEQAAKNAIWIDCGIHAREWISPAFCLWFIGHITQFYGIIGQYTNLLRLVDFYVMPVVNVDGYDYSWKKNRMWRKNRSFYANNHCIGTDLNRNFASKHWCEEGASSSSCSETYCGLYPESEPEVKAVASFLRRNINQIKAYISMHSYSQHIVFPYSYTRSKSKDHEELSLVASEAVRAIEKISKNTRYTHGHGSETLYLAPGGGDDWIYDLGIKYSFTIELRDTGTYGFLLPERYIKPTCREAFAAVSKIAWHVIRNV
Method: (§1) ProCPR was purified to homogeneity as previously described. […] CPN was purified to homogeneity as previously described. The enzyme gave three bands on SDS-PAGE at 83 kDa, 53 kDa and 50 kDa corresponding to the two large identical glycosylated subunits and the two smaller active subunits, respectively.
The activity of the CPR inhibitors was determined against purified CPR using hippuryl-L-arginine as the substrate. The peptides PCI-2K-R, CPI-2KR, PCI (500, 250/125/62.5, 50 mg/ml, respectively) or Tris-HCl buffer (50 mM; pH 7.5) were added to active CPR (40–320 mg/ml) at a 1:7 ratio. After thorough mixing, […] was incubated with various concentrations of hippuryl-L-arginine (1.2–6.0 mM), for 15 minutes at 37° C. The reaction was stopped with the addition of sodium phosphate buffer ([…]; 0.25 M), immediately followed by 3% cyanuric chloride in 1,4-dioxane ([…]). After mixing well, the generation of hippuric acid was determined by measuring the OD at 405 nm on a SpectraMAX 250 Microplate Spectrophotometer (Molecular Device Corporation, Sunnyvale, Calif., USA). Hippuric acid (0–2.0 mM) in Tris buffer was used as the standard.
A kinetics analysis of the CPR-catalysed hydrolysis of hippuryl-L-arginine in the absence and presence of inhibitory molecules was performed. The Lineweaver-Burk reciprocal plot, based on rearrangement of the Henri-Michaelis-Menten equation into a linear form, was applied:
[formula] where v (in mM sec^−1) is the instantaneous or initial velocity, [S] (mM) is the substrate concentration, Km(mM)is equivalent to the substrate concentration that yields half-maximal velocity and Vmax(mM sec^−1) is the maximum velocity. For competitive inhibition, where the inhibitor competes with the substrate for binding to the enzyme, the following mechanism was assumed: where
In competitive inhibition, the apparent Vmax is not affected with increasing inhibitor concentrations because once substrate binds the reaction proceeds normally (i.e. Vmax depends only on maximum ES complex concentration, which only depends on the total amount of enzyme present) However, the apparent Km increases (i.e. a higher substrate concentration is required for a given velocity) by a factor of [1+([I]/Ki)].
[formula] where Kmapp is the apparent Km for a given inhibitor concentration.
The Dixon plot (1/v versus [I] in the presence of different concentrations of substrate) provides a more diagnostic way of identifying the type of inhibition and determining the Ki: […]

[3] = target: T2, purified CPN (carboxypeptidase N) (Homo sapiens, UniProt P15169); test: CPN kinetics: effect on purified CPN with hippuryl-L-arginine as substrate; type: biochemical
T2 construct: corresponding to the two large identical glycosylated subunits and the two smaller active subunits; from tissue
T2 sequence (P15169 21-458): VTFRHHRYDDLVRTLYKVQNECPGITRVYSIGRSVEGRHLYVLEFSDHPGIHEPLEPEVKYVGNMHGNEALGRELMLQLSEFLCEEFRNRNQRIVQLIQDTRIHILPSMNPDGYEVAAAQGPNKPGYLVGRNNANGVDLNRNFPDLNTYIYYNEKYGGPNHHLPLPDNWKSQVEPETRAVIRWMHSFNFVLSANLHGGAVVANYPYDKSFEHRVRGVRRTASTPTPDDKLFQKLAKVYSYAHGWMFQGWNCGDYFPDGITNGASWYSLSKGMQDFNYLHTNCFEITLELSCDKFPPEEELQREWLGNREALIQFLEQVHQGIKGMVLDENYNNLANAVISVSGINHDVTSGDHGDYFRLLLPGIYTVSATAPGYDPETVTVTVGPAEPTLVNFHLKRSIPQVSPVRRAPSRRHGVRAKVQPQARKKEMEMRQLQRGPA
T2 sequence (P22792 22-545 partner): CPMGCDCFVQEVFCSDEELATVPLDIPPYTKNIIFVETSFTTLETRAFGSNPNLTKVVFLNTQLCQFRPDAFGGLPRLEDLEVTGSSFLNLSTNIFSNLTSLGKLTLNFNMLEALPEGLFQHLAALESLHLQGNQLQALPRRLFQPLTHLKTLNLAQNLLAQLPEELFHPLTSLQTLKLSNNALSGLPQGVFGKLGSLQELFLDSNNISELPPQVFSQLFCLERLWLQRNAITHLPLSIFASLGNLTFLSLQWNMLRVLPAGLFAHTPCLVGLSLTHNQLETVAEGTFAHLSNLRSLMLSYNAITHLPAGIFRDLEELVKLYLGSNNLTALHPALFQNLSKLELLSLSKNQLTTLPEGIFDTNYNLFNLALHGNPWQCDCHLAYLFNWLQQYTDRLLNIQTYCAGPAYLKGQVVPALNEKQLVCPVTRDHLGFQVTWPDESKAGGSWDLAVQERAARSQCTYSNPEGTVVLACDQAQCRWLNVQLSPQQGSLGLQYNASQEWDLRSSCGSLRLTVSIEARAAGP
Method: as §1
The effect of CPI-2KR on purified CPN was determined using hippuryl-L-arginine as the substrate. Guanidinoethylmercaptosuccinic acid (GEMSA) was used as a positive control. CPI-2KR ([…]), GEMSA ([…]) or Tris-HCl buffer (50 mM; pH 7.5) were added to CPN (10 mg/ml) at a 1:7 ratio. Identical conditions to those used for the CPR kinetics experiments were subsequently applied.

CPR = target: T3, CPR (Homo sapiens, UniProt Q96IY4); settings: cited from earlier work
T3 sequence (Q96IY4 115-423): T1 sequence (Q96IY4 115-423)

Compound: CPI-2KR-cyclic: cyclised CPI-2KR via N- and C-terminal cysteine residues, SEQ ID NO: 3 (CKPAKNARC; disulfide 1-9)
- effect on TM-induced retardation of t-PA-induced fibrinolysis (in words) [1]: dramatic loss of inhibitory activity

Compound: PCI-R: PCI-derived peptide containing the arginine residue, SEQ ID NO: 2 (QACWNSART)
- inhibitory activity against CPR (in words) [2]: no activity was observed

Compound: C[C@H](NC(=O)[C@H](CC(N)=O)NC(=O)[C@H](CCCCN)NC(=O)[C@H](C)NC(=O)[C@@H]1CCCN1C(=O)[C@H](CCCCN)NC(=O)[C@@H](N)CS)C(=O)N[C@@H](CCCNC(=N)N)C(=O)N[C@@H](CS)C(N)=O [CPI-2KR] (H-CKPAKNARC-NH2; N-terminus assumed)
- inhibitory activity against CPN ([3]; at 506 nM): did not exhibit any inhibitory activity
- effect on TM-induced retardation of t-PA-induced fibrinolysis (in words) [1]: synergistically accelerated fibrinolysis; also recorded: dose-responsive inhibition
- effective inhibitory concentration, fold higher than that of PCI [1]: 10 fold
- effective inhibitory concentration on TM-induced retardation of t-PA-induced fibrinolysis ([1]; TM 8 nM): 126 nM
- Ki, fold higher than that of PCI [2]: 6 fold
- binding affinity for CPR, fold stronger than PCI-2K-R [2]: ~46 fold
- inhibitory activity against CPR (in words) [2]: competitive inhibitor

Compound: tetrapeptide C-terminal fragment of PCI: tetrapeptide C-terminal fragment of PCI (PYVG)
- inhibitory activity against CPR (in words) [2]: does not inhibit

The next lines start with results.

- inhibitory activity against CPN ([3]; at 425 nM): inhibited
- inhibitory activity against CPN ([3]; at 2.1 mM): strong inhibitory activity
Compound: N=C(N)NCCSC(CC(=O)O)C(=O)O (centres unmarked) [GEMSA, guanidinoethylmercaptosuccinic acid]
- concentration at which CPR is inhibited (literature [40]) (CPR): 18 mM

- inhibitory activity against CPR (in words) [2]: no activity was observed
Compound: PCI-2K: PCI-derived peptide containing the two lysine residues, SEQ ID NO: 1 (NKPCKTHDD)

- Km ([2]; hippuryl-L-arginine substrate, Lineweaver-Burke, read-out: Km of CPR in the presence of the inhibitor): 12.3 mM
Compound: PCI: small 39-residue protein (MW 4295 Da), potato carboxypeptidase inhibitor, SEQ ID NO: 4 (QQHADPICNKPCKTHDDCSGAWFCQACWNSARTCGPYVG) [reference compound]
- Ki (CPR; read-out: Ki against CPR (literature)): 0.4 nM
- effect on TM-induced retardation of t-PA-induced fibrinolysis (in words) [1]: permitting fibrinolysis to proceed
